Ten compounds from DBAASP can be followed below.

Usually MIC stands for the lowest concentration that inhibits growth of the organism. Low readings indicate a more susceptible organism, high ones a less susceptible organism.

Values after ≈ are worked out from the molar mass of the structure shown.

Common to all, as to assay: ≥ marks a high value that may be exact or a test limit, other limits are often not marked, values filed in µg/mL are converted to µM
The subject of experiment [1] is Pseudomonas aeruginosa Ps4.
Experiment [2] deals with Pseudomonas aeruginosa ATCC 9027.
Experiment [3] deals with Staphylococcus aureus ATCC 25923.
Experiment [4] deals with Escherichia coli ATCC 25922.
Experiment [5] concerns Candida albicans ATCC 10231.
Experiment [6] concerns Enterococcus faecalis PCM 2673.
For experiment [7], the system named is Klebsiella pneumoniae ATCC 700603.
Experiment [8] deals with Pseudomonas aeruginosa ATCC 27853.
Experiment [9] has as its system Candida albicans ATCC 90028.
Experiment [10] has as its system Acinetobacter baumannii ATCC 19606.
Experiment [11] concerns Staphylococcus aureus ATCC 43300.
The subject of experiment [12] is Cryptococcus neoformans ATCC 208821.
Experiment [13] concerns Staphylococcus aureus SH1000.
Experiment [14] has as its system Staphylococcus epidermidis.
Experiment [15] has as its system Pseudomonas aeruginosa PAO1.
Experiment [16] deals with Staphylococcus aureus ATCC BAA-41.
Experiment [17] deals with Escherichia coli BL21.
In experiment [18] the test system is Staphylococcus aureus ATCC 6538P.
Experiment [19] has as its system Pseudomonas aeruginosa K799.
Experiment [20] has as its system Pseudomonas aeruginosa H547.
In experiment [21] the test system is Escherichia coli UB1005.
The subject of experiment [22] is Salmonella enterica subsp. enterica serovar Typhimurium ATCC 14028s.
For experiment [23], the system named is Pseudomonas aeruginosa H744.
In experiment [24] the test system is Pseudomonas aeruginosa H374.
The subject of experiment [25] is Pseudomonas aeruginosa Z61.
Experiment [26] deals with Burkholderia cepacia ATCC 25416.
The test system of experiment [27] is Pseudomonas aeruginosa PA14.
For experiment [28], the system named is Klebsiella aerogenes ATCC 13048.
The test system of experiment [29] is Staphylococcus aureus ATCC 29231.

In the case of `NC(=O)CC[C@H](NC(=O)[C@H](Cc1c[nH]c2ccccc12)NC(=O)[C@@H](N)Cc1ccccc1)C(=O)N[C@@H](CCCN=C(N)N)C(=O)N[C@@H](CC(N)=O)C(=O)N[C@@H](Cc1c[nH]c2ccccc12)C(=O)N[C@@H](CCCN=C(N)N)C(=O)N[C@@H](Cc1c[nH]c2ccccc12)C(=O)N[C@@H](CCCN=C(N)N)C(=O)N[C@@H](CCCN=C(N)N)C(N)=O` [FWQRNWRWRR], the MIC in experiment [1] was at least 157 µM.
On the same count and under the same terms, the result for `CC[C@H](C)[C@H](NC(=O)[C@H](CCCN=C(N)N)NC(=O)[C@@H](NC(=O)[C@H](CC(N)=O)NC(=O)[C@H](CCCN=C(N)N)NC(=O)[C@H](Cc1c[nH]c2ccccc12)NC(=O)[C@@H](N)Cc1ccccc1)[C@@H](C)CC)C(=O)N[C@@H](Cc1c[nH]c2ccccc12)C(=O)N[C@@H](CCCN=C(N)N)C(=O)N[C@@H](CCCN=C(N)N)C(N)=O` [FWRNIRIWRR] reads at least 166 µM.
For `CC[C@H](C)[C@H](NC(=O)[C@H](CCCCN)NC(=O)[C@H](CCCCN)NC(=O)[C@@H](NC(=O)[C@@H](NC(=O)[C@H](CC(=O)O)NC(=O)[C@H](C)NC(=O)[C@H](CC(C)C)NC(=O)CN)[C@@H](C)CC)[C@@H](C)CC)C(=O)N[C@@H](C)C(=O)N[C@@H](CCC(=O)O)C(=O)N[C@@H](CO)C(=O)N[C@@H](Cc1ccccc1)C(N)=O` [GLADIIKKIAESF], the MIC was 365 µM (≈ 512 µg/mL) in experiment [2]; 365 µM (≈ 512 µg/mL) in experiment [3]; 91.1 µM (≈ 128 µg/mL) in experiment [4]; 91.1 µM (≈ 128 µg/mL) in experiment [5]; at least 182 µM in experiment [6].
Regarding `CC[C@H](C)[C@H](NC(=O)[C@H](C)NC(=O)[C@H](CC(=O)O)NC(=O)[C@H](Cc1ccccc1)NC(=O)[C@H](CC(C)C)NC(=O)CN)C(=O)N[C@@H](CCCCN)C(=O)N[C@@H](CCCCN)C(=O)N[C@H](C(=O)N[C@@H](C)C(=O)N[C@@H](CCC(=O)O)C(=O)N[C@@H](CO)C(=O)N[C@@H](Cc1ccccc1)C(N)=O)[C@@H](C)CC` [GLFDAIKKIAESF], the MIC was 356 µM (≈ 512 µg/mL) in [2]; above 356 µM in [3]; 178 µM (≈ 256 µg/mL) in experiment [4]; 178 µM (≈ 256 µg/mL) in experiment [5]; at least 89 µM in experiment [6].
Take `CC(C)C[C@H](NC(=O)[C@H](C)NC(=O)[C@H](CCCCN)NC(=O)[C@H](CC(C)C)NC(=O)[C@H](CC(C)C)NC(=O)[C@H](CCCCN)NC(=O)[C@H](CCCCN)NC(=O)[C@H](CC(C)C)NC(=O)[C@H](CC(C)C)NC(=O)[C@H](CCCCN)NC(=O)[C@H](CC(C)C)NC(=O)[C@H](CC(C)C)NC(=O)[C@@H](N)CCCCN)C(=O)NCC(N)=O` [KLLKLLKKLLKALG]: the MIC in [7] is above 20 µM; in experiment [8], above 20 µM; in [9], 20 µM (≈ 31.6 µg/mL); in experiment [10] it was 1 µM (≈ 1.58 µg/mL); in [4], 20 µM (≈ 31.6 µg/mL); in experiment [11], 10 µM (≈ 15.8 µg/mL). In addition, the MIC was 3 µM (≈ 4.73 µg/mL) in experiment [12] and at least 33 µM in [13].
Turning to `CC(C)C[C@H](NC(=O)[C@H](C)NC(=O)CNC(=O)[C@@H](NC(=O)[C@@H](NC(=O)[C@H](CCCCN)NC(=O)[C@H](CCCCN)NC(=O)[C@@H](NC(=O)[C@H](CC(C)C)NC(=O)[C@H](CCCCN)NC(=O)[C@H](CC(C)C)NC(=O)[C@H](CC(C)C)NC(=O)[C@@H](N)CCCCN)C(C)C)C(C)C)C(C)C)C(=O)NCC(N)=O` [KLLKLVKKVVGALG], the MIC in [7] is above 22 µM; in experiment [8], above 22 µM; in [9], 22 µM (≈ 32.2 µg/mL); in experiment [10], above 22 µM; in experiment [4], above 22 µM; in [11], above 22 µM. The MIC in experiment [12] is 22 µM (≈ 32.2 µg/mL); in experiment [13], at least 33 µM.
Turning to `CC[C@H](C)[C@H](NC(=O)[C@H](CCCCN)NC(=O)[C@H](CCCCN)NC(=O)[C@H](Cc1ccccc1)NC(=O)[C@H](CCCCN)NC(=O)[C@H](CCCCN)NC(=O)[C@H](Cc1c[nH]c2ccccc12)NC(=O)[C@@H](N)CCCCN)C(=O)NCC(=O)N[C@@H](C)C(=O)N[C@H](C(=O)N[C@@H](CC(C)C)C(=O)N[C@@H](CCCCN)C(=O)N[C@H](C(=O)N[C@@H](CC(C)C)C(=O)O)C(C)C)C(C)C` [KWKKFKKIGAVLKVL], the MIC in experiment [14] was 0.5 µM (≈ 0.893 µg/mL); in experiment [15] it was 0.707 µM (≈ 1.26 µg/mL); in [16], 16 µM (≈ 28.6 µg/mL); in [17] it was 0.354 µM (≈ 0.632 µg/mL); in [18], 16 µM (≈ 28.6 µg/mL).
For the compound `CC[C@H](C)[C@H](NC(=O)[C@H](CCCCN)NC(=O)[C@H](CCCCN)NC(=O)[C@H](Cc1ccccc1)NC(=O)[C@H](CCCCN)NC(=O)[C@H](CCCCN)NC(=O)[C@H](Cc1c[nH]c2ccccc12)NC(=O)[C@@H](N)CCCCN)C(=O)NCC(=O)N[C@@H](CCCCN)C(=O)N[C@H](C(=O)N[C@@H](CC(C)C)C(=O)N[C@@H](CCCCN)C(=O)N[C@H](C(=O)N[C@@H](CC(C)C)C(=O)O)C(C)C)C(C)C` [KWKKFKKIGKVLKVL], the MIC in experiment [14] worked out at 0.25 µM (≈ 0.461 µg/mL); in experiment [15], 0.707 µM (≈ 1.3 µg/mL); in experiment [16], 16 µM (≈ 29.5 µg/mL); in experiment [17], 0.5 µM (≈ 0.922 µg/mL); in experiment [18] it was 16 µM (≈ 29.5 µg/mL).
Regarding `CC[C@H](C)[C@H](NC(=O)[C@H](Cc1ccccc1)NC(=O)[C@H](CO)NC(=O)[C@H](CCCCN)NC(=O)[C@H](Cc1c[nH]c2ccccc12)NC(=O)[C@@H](N)CCCCN)C(=O)N[C@@H](CCCCN)C(=O)N[C@@H](CCCCN)C(=O)N[C@@H](CC(C)C)C(=O)N[C@H](C(=O)N[C@@H](CO)C(=O)N[C@@H](C)C(=O)N[C@@H](C)C(=O)N[C@@H](CCCCN)C(=O)N[C@@H](CCCCN)C(=O)N[C@H](C(=O)N[C@H](C(=O)N[C@H](C(=O)N[C@@H](C)C(=O)N[C@@H](C)C(=O)N[C@@H](CCCCN)C(=O)N1CCC[C@H]1C(=O)N[C@@H](CC(C)C)C(=O)N[C@H](C(=O)N[C@@H](CCCCN)C(=O)O)[C@@H](C)O)[C@@H](C)O)[C@@H](C)O)C(C)C)[C@@H](C)O` [KWKSFIKKLTSAAKKVTTAAKPLTK], the MIC in experiment [19] was 23.1 µM (≈ 64 µg/mL); in [20] it was 5.76 µM (≈ 16 µg/mL); in experiment [21], 0.721 µM (≈ 2 µg/mL); in experiment [22], 15.5 µM (≈ 43 µg/mL); in experiment [23], 2.88 µM (≈ 8 µg/mL); in experiment [24], 2.88 µM (≈ 8 µg/mL). Also, the MIC in experiment [25] came out at 8.65 µM (≈ 24 µg/mL); in [26], 23.1 µM (≈ 64 µg/mL).
For `CC[C@H](C)[C@H](NC(=O)[C@H](CCCCN)NC(=O)[C@H](Cc1c[nH]c2ccccc12)NC(=O)[C@H](CC(C)C)NC(=O)[C@@H](NC(=O)[C@H](CCCCN)NC(=O)[C@H](Cc1c[nH]c2ccccc12)NC(=O)[C@@H](N)CC(C)C)[C@@H](C)CC)C(=O)N[C@@H](Cc1c[nH]c2ccccc12)C(=O)N[C@@H](CCCN=C(N)N)C(=O)N[C@H](C(=O)N[C@@H](CC(C)C)C(=O)N[C@@H](CCCCN)C(=O)N[C@@H](CC(N)=O)C(=O)N[C@@H](Cc1c[nH]c2ccccc12)C(=O)N[C@@H](CCCN=C(N)N)C(=O)O)C(C)C` [LWKILWKIWRVLKNWR], the MIC is at least 57.2 µM in [27], at least 57.2 µM in experiment [28], above 57.2 µM in experiment [5] and 28.6 µM (≈ 64 µg/mL) in experiment [29].
